Results published in the CheMixHub ionic liquid set.

Assay: xn = mol fraction of the nth substance listed

CCCn1cc[n+](CCC)c1.O=S(=O)([N-]S(=O)(=O)C(F)(F)F)C(F)(F)F + O
100 kPa, x2 = 0.2232
Details	viscosity [mPa·s]
303.15 K	29.21
313.15 K	20.49
333.15 K	11.48
348.15 K	8.09
363.15 K	6

NCCOCCO + CN1CCCC1=O + CCCC[n+]1ccn(C)c1.O=S(=O)([N-]S(=O)(=O)C(F)(F)F)C(F)(F)F
viscosity [mPa·s], 101 kPa
Details	293.15 K	298.15 K	303.15 K	308.15 K	313.15 K	318.15 K	323.15 K	328.15 K	333.15 K
x1 = 0.2949, x2 = 0.6792	5.359	4.682	4.146	3.69	3.316	3.017	2.747	2.523	2.335
x1 = 0.3615, x2 = 0.5637	8.078	6.927	6.008	5.26	4.651	4.139	3.714	3.359	3.062
x1 = 0.4113, x2 = 0.453	12.21	10.27	8.74	7.52	6.54	5.736	5.069	4.517	4.053

CCOS(=O)(=O)[O-].CC[n+]1ccn(C)c1 + CCO
298.15 K, 101 kPa
Details	viscosity [mPa·s]
x2 = 0.2187	47.7
x2 = 0.7508	5.08
x2 = 0.7866	4.31

CCCCCn1cc[n+](C)c1.O=S(=O)([N-]S(=O)(=O)C(F)(F)F)C(F)(F)F + O
100 kPa, x2 = 0.2211
Details	viscosity [mPa·s]
313.15 K	22.15
318.15 K	18.86

CN(C)CCO + CCCC[n+]1ccn(C)c1.F[P-](F)(F)(F)(F)F
101 kPa
Details	electrical conductivity [S/m]	viscosity [mPa·s]
288.15 K, x1 = 0.3182	0.1534	120
288.15 K, x1 = 0.3764	0.1645	–
288.15 K, x1 = 0.5166	0.1918	63
288.15 K, x1 = 0.709	0.211	29
288.15 K, x1 = 0.8063	0.1998	18
293.15 K, x1 = 0.2143	0.187	117
293.15 K, x1 = 0.4405	–	61
293.15 K, x1 = 0.4637	0.237	–
293.15 K, x1 = 0.5166	0.25	48
293.15 K, x1 = 0.8063	0.245	14.6
298.15 K, x1 = 0.1221	0.211	117
298.15 K, x1 = 0.4637	0.308	–
298.15 K, x1 = 0.9128	0.1874	6.7
298.15 K, x1 = 1	–	3.8
303.15 K, x1 = 0.3764	0.369	–
303.15 K, x1 = 0.4405	–	36
303.15 K, x1 = 0.8063	0.355	9.7
308.15 K, x1 = 0.4405	–	28
308.15 K, x1 = 0.4637	0.483	–
313.15 K, x1 = 0.605	0.611	14
318.15 K, x1 = 0.3764	0.679	–
323.15 K, x1 = 0.3764	0.792	–
323.15 K, x1 = 0.5166	0.849	12.7
323.15 K, x1 = 1	–	2.04

CCCC[n+]1ccn(C)c1.O=[N+]([O-])[O-] + CCCCCO
100 kPa
Details	viscosity [mPa·s]
293.15 K, x1 = 0.4363	18.2
293.15 K, x1 = 0.5668	29.3
293.15 K, x1 = 0.7481	61
313.15 K, x1 = 0.6481	18.9
313.15 K, x1 = 0.8416	38.7
313.15 K, x1 = 0.9415	57.5
323.15 K, x1 = 0.0824	2.22
323.15 K, x1 = 0.9415	35.5

COCCCC[n+]1ccn(C)c1.C[C@@H](O)[C@H](N)C(=O)[O-] + CS(C)=O
viscosity [mPa·s], 100 kPa
Details	x1 = 0.0999	x1 = 0.2013	x1 = 0.3006	x1 = 0.3966	x1 = 0.5	x1 = 0.6011	x1 = 0.7007	x1 = 0.8001	x1 = 0.8946	x1 = 1
288.15 K	14.24	22.21	49.3	102.2	186.6	281	390	560	778	1030
293.15 K	12.05	18.12	37.45	74.9	132.1	192	264	371	503	647
298.15 K	9.53	15.09	30.16	56.54	94.4	135.2	181.5	254	340	424
303.15 K	7.91	12.7	24.02	43.12	69.4	97.9	131.7	179.9	234	290
308.15 K	6.67	10.74	19.82	33.94	52.97	74.4	98.5	133	168.7	205
313.15 K	5.86	9.49	16.58	27.18	39.95	53.5	69.5	90.7	108.9	132.9
318.15 K	5.2	8.31	13.95	21.6	31.33	41.63	53.64	69.5	80.3	98.5

CCOS(=O)(=O)[O-].CC[n+]1ccn(C)c1 + O=C([O-])CC(O)(CC(=O)[O-])C(=O)[O-].[K+].[K+].[K+] + O
viscosity [mPa·s], 101.3 kPa
Details	293.15 K	298.15 K	303.15 K	308.15 K	313.15 K
x2 = 0, x1 = 0.001795	1.073	0.96	0.845	0.751	0.679
x2 = 0, x1 = 0.002698	1.107	0.987	0.876	0.788	0.709
x2 = 0, x1 = 0.003589	1.136	1.016	0.899	0.811	0.727

CCCCCC[n+]1ccn(C)c1.O=[N+]([O-])[O-] + CCC(C)O
viscosity [mPa·s], 100 kPa
Details	293.15 K	298.15 K	303.15 K	308.15 K	313.15 K	318.15 K	323.15 K
x1 = 0.0819	7.63	5.55	4.2	3.3	2.59	2.14	1.79
x1 = 0.1591	14.93	10.31	7.2	5.2	3.92	3.18	2.52
x1 = 0.2414	28.5	19.3	13.16	9.1	6.75	5.3	3.9
x1 = 0.3517	54.2	37.9	27.6	18	13.16	10.35	7.8
x1 = 0.4412	87.8	63.7	46.7	30.6	21.5	16.77	12.8
x1 = 0.5591	156.2	117.1	84.5	56.4	38	29.4	23
x1 = 0.6518	227	172.4	117.1	81.3	58.7	43	33.6
x1 = 0.7392	322	238	158.7	113.3	84.5	60.9	47.3
x1 = 0.8516	475	342	230	168.2	124.1	91.6	71.1
x1 = 0.9395	641	451	304	218	159.2	119.8	94.4
x1 = 1	804	545	369	258	186	140.2	110.9

CC[NH+](CC)CC.O=P([O-])(O)O + CS(C)=O
viscosity [mPa·s], 101 kPa
Details	298.15 K	303.15 K	308.15 K
x2 = 0	64.3	57.1	49.5
x2 = 0.0242	61.3	54.6	47.55
x2 = 0.0507	58.2	51.7	45.51
x2 = 0.1295	49.7	44.43	39.41
x2 = 0.1963	43.47	38.82	34.74
x2 = 0.2596	37.82	34.13	30.67
x2 = 0.3272	32.61	29.61	26.81
x2 = 0.3878	28.47	26.13	23.64
x2 = 0.4494	24.64	22.94	20.75
x2 = 0.5141	21.1	19.68	17.92
x2 = 0.5888	17.29	16.43	14.93
x2 = 0.6387	15	14.42	13.14
x2 = 0.7055	12.26	11.95	10.82
x2 = 0.7616	10.18	9.98	9.01
x2 = 0.8342	7.58	7.36	6.75
x2 = 0.8828	5.7	5.6	5.23
x2 = 0.9272	4.37	4.24	3.84
x2 = 0.9543	3.31	3.2	2.98
x2 = 0.9772	2.7	2.56	2.33
